Test results as given in patent US20100048575A1, “NOVEL TETRACYCLIC INHIBITORS OF CYSTEINE PROTEASES, THE PHARMACEUTICAL COMPOSITIONS THEREOF AND THEIR THERAPEUTIC APPLICATIONS” (priority 2006, published 2010).
pIC50: −log10 of the molar value.

What was measured:
[1] = target: T1, USP8 (Homo sapiens, UniProt P40818); experiment: USP8 activity assay (Ub-AMC); type: biochemical; details: 400 nM Ub-AMC, 630 pM enzyme, pH8.8, 30 min pre-incubation, 60 min at 37° C., sigmoidal fit; read-out: USP8 (inhibition of cysteine protease activity)
T1 construct: His tag (from vector pFastBac-HT) (N); made in house; host or cells: insect cells (Sf9 or High Five), baculovirus
T1 sequence (P40818 1-1118): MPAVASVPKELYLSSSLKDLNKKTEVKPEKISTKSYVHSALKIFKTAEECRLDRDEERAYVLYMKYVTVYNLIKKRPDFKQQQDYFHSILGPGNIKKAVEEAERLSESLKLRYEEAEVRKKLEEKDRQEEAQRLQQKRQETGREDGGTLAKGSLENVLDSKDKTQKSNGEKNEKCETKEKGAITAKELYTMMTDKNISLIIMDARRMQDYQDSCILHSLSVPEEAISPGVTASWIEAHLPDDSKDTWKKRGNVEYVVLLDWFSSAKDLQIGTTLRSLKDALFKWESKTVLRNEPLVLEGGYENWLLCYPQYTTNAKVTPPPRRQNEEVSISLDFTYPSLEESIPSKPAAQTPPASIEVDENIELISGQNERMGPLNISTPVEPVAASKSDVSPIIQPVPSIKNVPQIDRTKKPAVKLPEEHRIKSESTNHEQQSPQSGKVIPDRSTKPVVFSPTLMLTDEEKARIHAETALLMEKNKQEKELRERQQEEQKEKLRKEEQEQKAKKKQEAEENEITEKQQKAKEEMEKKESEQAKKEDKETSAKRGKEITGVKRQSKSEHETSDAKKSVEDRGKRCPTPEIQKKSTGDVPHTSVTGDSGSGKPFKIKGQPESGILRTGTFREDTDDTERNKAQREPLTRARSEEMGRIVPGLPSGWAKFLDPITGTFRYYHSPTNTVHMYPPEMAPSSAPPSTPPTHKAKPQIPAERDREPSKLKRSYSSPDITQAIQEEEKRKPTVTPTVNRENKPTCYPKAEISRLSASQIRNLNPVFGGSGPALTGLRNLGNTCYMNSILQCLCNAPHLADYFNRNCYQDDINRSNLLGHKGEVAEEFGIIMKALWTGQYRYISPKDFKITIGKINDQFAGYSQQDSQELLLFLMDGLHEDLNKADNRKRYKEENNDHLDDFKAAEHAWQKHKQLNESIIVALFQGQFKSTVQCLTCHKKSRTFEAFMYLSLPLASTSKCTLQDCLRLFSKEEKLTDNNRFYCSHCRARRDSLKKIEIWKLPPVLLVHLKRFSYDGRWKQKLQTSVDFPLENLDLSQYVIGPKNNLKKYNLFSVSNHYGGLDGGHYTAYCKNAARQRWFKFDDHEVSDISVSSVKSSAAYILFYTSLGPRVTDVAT
Text: The cDNA encoding USP8 was obtained by PCR amplification from placenta mRNA. USP8 cDNA was subcloned by PCR into a baculovirus expression vector (pFastBac-HT; Invitrogen). A cDNA encoding a mutated USP8 was generated by mutagenic PCR. The corresponding protein encodes a cysteine to alanine substitution at residue 786. The sequences were ascertained by sequencing of the entire open reading frame. Bacmids encoding […] were generated following. DH10bac transposition. The corresponding bacmids were transfected into insect cells (Sf9). Viruses were recovered from culture supernatant and amplified twice. Insect cells (Sf9 or High Five; Invitrogen) were infected for 72 hours. Total cell lysates were harvested and lyzed in lysis buffer (Tris HCl 50 mM pH7.6; 0.75% NP40; 500 mM NaCl; 10% glycerol; 1 mM DTT; 10 mM imidazole; Protease Inhibitor Cocktail; AEBSF 20 μg.ml^−1; Aprotinin 10 μg.ml^−1). Proteins were affinity purified on metal affinity resins (Talon Metal affinity resin; BD Biosciences). Bound materials were extensively washed in wash buffer (50 mM Sodium Phosphate pH 7.0; 300 mM NaCl; 10 mM imidazole; 0.5% Triton X-100; 10% glycerol) and eluted from the resin in 250 mM imidazole-containing wash buffer. Proteins were dialyzed in dialysis buffer (Tris HCl pH 7.6 20 mM; NaCl 200 mM; DTT 1 mM; EDTA 1 mM; 10% Glycerol). Proteins purifications were analyzed on 4-12% NuPAGE (Invitrogen).
USP8 was diluted in USP buffer (50 mM Tris HCl; 0.5 mM EDTA; 5 mM DTT; 0.01% Triton X-100; Bovine Serum Albumin 0.05 mg.ml^−1 pH8.8). Compounds stocks (100 mM) were stored at −20° C. in DMSO.
Reactions were performed as duplicates in Black LJL 96 well plates (HE microplates; Molecular Devices; 20 μl final reaction volume). The substrate concentration for USP8 was 400 nM Ub-AMC (Boston Biochem). The concentrations of the enzyme (USP8) in specificity assays was 630 pM. The concentrations were determined in order to perform specificity assays under initial velocities at fixed substrate concentration. Compounds were pre-incubated with enzymes for 30 minutes at 25° C. Reactions were initiated by addition of substrate to the plates containing the enzymes (+/−compounds) diluted in assay buffer. Reactions were incubated for 60 minutes at 37° C. Reactions were stopped by adding acetic acid (100 mM final). Readings were performed on a Pherastar Fluorescent Reader (BMG). λ Emission 380 nm; λ Excitation=460 nm. Data (mean values +/−standard deviation) were analyzed as % of control (no compound) and plotted as percentage versus the Log of the compound concentration using GraphPad (Prism). Data were fitted to a sigmoidal model (variable slope).

[2] = target: T2, Uch-L3 (Homo sapiens, UniProt P15374); experiment: UCH-L3 activity assay (Ub-AMC); type: biochemical; details: 400 nM Ub-AMC, 13 pM enzyme, 30 min pre-incubation, 60 min at 37° C., sigmoidal fit; read-out: Uch-L3 (inhibition of cysteine protease activity)
T2 sequence (P15374 1-230): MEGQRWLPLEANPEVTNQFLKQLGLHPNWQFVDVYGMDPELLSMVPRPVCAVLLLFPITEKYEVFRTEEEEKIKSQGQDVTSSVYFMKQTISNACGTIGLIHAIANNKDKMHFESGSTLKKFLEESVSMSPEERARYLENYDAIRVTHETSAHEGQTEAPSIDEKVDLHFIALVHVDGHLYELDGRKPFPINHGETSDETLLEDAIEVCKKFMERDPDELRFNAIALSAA
Protocol: Uch-L3 was diluted in USP buffer (50 mM Tris HCl; 0.5 mM EDTA; 5 mM DTT; 0.01% Triton X-100; Bovine Serum Albumin 0.05 mg.ml^−1 pH7.6). Compounds stocks (100 mM) were stored at −20° C. in DMSO. Compounds were tested at the following final concentrations: 100 μM; 33.3 μM; 11.1 μM; 3.7 μM; 1.23 μM; 412 nM; 137 nM; 45.7 nM, 15.2 nM; 5 nM.
Reactions were performed as duplicates in Black LJL 96 well plates (HE microplates; Molecular Devices; 20 μl final reaction volume). The substrate concentration for Uch-L3 was 400 nM Ub-AMC (Boston Biochem). The concentration of the enzyme (Uch-L3) in specificity assays was 13 pM. The concentrations were determined in order to perform specificity assays under initial velocities at fixed substrate concentration. Compounds were pre-incubated with enzymes for 30 minutes at 25° C. Reactions were initiated by addition of substrate to the plates containing the enzymes (+/−compounds) diluted in assay buffer.
Reactions were incubated for 60 minutes at 37° C. Reactions were stopped by adding acetic acid (100 mM final). Readings were performed on a Pherastar Fluorescent Reader (BMG). δ Emission 380 nm; 6 Excitation=460 nm. Data (mean values +/−standard deviation) were analyzed as % of control (no compound) and plotted as percentage versus the Log of the compound concentration using GraphPad (Prism). Data were fitted to a sigmoidal model (variable slope).

## C=CCON=C1c2ccccc2-c2nc3nnc(C)n3nc21 (mixture of isomers) [5c, 1-Methyl-2,3,4,10,10a-pentaaza-cyclopenta[b]fluoren-9-one O-allyl-oxime]
[1]
  pIC50: 4.32
[2]
  pIC50: 4.29

## C=CCON=C1c2ccccc2-c2nc3nnc(CCCC)n3nc21 (mixture of isomers) [5e, 1-Butyl-2,3,4,110,10a-pentaaza-cyclopenta[b]fluoren-9-one O-allyl-oxime]
[1]
  pIC50: 4.46
[2]
  pIC50: 4.05
